Results: patent US9096832B2, “Differentiation of human embryonic stem cells” (LifeScan, Inc., priority 2007, dated 2015)

Tested on: H9 embryonic stem cells
Test: Microarray analysis of definitive endoderm stage cells on […] or MEFs +/- Wnt-3a (Table VI)
Assay type: cell-based, human
Conditions: for mean normalized intensity: ESTs: DE treatment in low serum on MEFS, log format
Description: Controls for each group included cells plated on [sequence]—coated dishes and cultured in MEF-conditioned medium or cells plated on MEFs and cultured in ES medium. All groups contained three biological replicates and each biological replicate was repeated on two separate gene chips.
Sample preparation, hybridization, and image analysis were performed according to the Affymetrix Human Genome U133 Plus 2.0 Array. Following normalization and a log transformation, data analysis was performed using OmniViz® software (MA) and [sequence] […] Significant differences in gene expression between the samples were evaluated using analysis of variance and an F-test with adjusted P-value (Benjamini and Hochberg correction) of less-than or equal to 0.05. Only genes with a present call in at least one group were included in the analysis.

## Activin A: activin A (a member of the TGFβ superfamily), R&D Systems; 'w/o wnt' in Table VII = 100 ng/ml Activin A without Wnt3a
Gene line r2134
  mean normalized intensity: ESTs: −0.9461
Gene line r2148
  mean normalized intensity: ESTs: 5.334
Low serum, on MATRIGEL
  Intensity (log): 6-phosphofructo-2-kinasefructose-2,6-biphosphatase 4: −0.2429
  Intensity (log): ESTs, Highly similar to IHH_HUMAN INDIAN HEDGEHOG PROTEIN PRECURSOR (H. sapiens): −0.654
  Intensity (log): ESTs, Moderately similar to JE0284 Mm-1 cell derived transplantability-associated protein 1b (H. sapiens): −2.377
  Intensity (log): ESTs, Weakly similar to FCE2 MOUSE LOW AFFINITY IMMUNOGLOBULIN EPSILON FC RECEPTOR (M. musculus): 0.4942
  Intensity (log): ESTs, Weakly similar to the 331st table hypothetical protein KIAA0555 (H. sapiens): −1.574
  Intensity (log): G protein-coupled receptor: 1.507
  Intensity (log): G protein-coupled receptor 49: 0.2655
  Intensity (log): Homo sapiens Kell blood group (KEL), mRNA: −2.205
  Intensity (log): Homo sapiens MLL septin-like fusion (MSF), mRNA: −3.292
  Intensity (log): Homo sapiens Mix-like homeobox protein 1 (MILD1) mRNA, complete cds: −1.546
  Intensity (log): Homo sapiens Rho GTPase activating protein 6 (ARHGAP6), transcript variant 2, mRNA: −1.104
  Intensity (log): Homo sapiens TBX3-iso protein (TBX3-iso), mRNA: −2.346
  Intensity (log): Homo sapiens angiopoietin 2 (ANGPT2), mRNA: −2.93
  Intensity (log): Homo sapiens ankyrin-like with transmembrane domains 1 (ANKTM1), mRNA: −1.109
  Intensity (log): Homo sapiens apolipoprotein A-I (APOA1), mRNA: −1.471
  Intensity (log): Homo sapiens apolipoprotein A-II (APOA2), mRNA: −1.033
  Intensity (log): Homo sapiens arylsulfatase E (chondrodysplasia punctata 1) (ARSE), mRNA: 0.283
  Intensity (log): Homo sapiens atrophin-1 interacting protein 1; activin receptor interacting protein 1 (KIAA0705), mRNA: −4.308
  Intensity (log): Homo sapiens beta-site APP cleaving enzyme (BACE) mRNA, complete cds: −2.0354
  Intensity (log): Homo sapiens cDNA FLJ11550 fis, clone HEMBA1002970: −1.222
  Intensity (log): Homo sapiens cDNA FLJ12993 fis, clone NT2RP3000197: 0.1473
  Intensity (log): Homo sapiens cDNA FLJ13221 fis, clone NT2RP4002075: 0.3557
  Intensity (log): Homo sapiens cardiac ventricular troponin C mRNA, complete cds: −0.5497
  Intensity (log): Homo sapiens cartilage linking protein 1 (CRTL1), mRNA: −1.315
  Intensity (log): Homo sapiens cell adhesion molecule with homology to L1CAM (close homologue of L1) (CHL1), mRNA: −0.5412
  Intensity (log): Homo sapiens chromosome 19, cosmid R31181: −0.2589
  Intensity (log): Homo sapiens clone 23736 mRNA sequence: −0.04718
  Intensity (log): Homo sapiens cryptic mRNA, complete cds: 0.1049
  Intensity (log): Homo sapiens cystatin S (CST4), mRNA: 0.9245
  Intensity (log): Homo sapiens cystatin SA (CST2), mRNA: −0.1022
  Intensity (log): Homo sapiens cystatin SN (CST1), mRNA: 0.07293
  Intensity (log): Homo sapiens cytidine deaminase (CDA), mRNA: −3.891
  Intensity (log): Homo sapiens dual specificity phosphatase 4 (DUSP4), mRNA: 0.9539
  Intensity (log): Homo sapiens fibroblast growth factor 8 (androgen-induced) (FGF8), mRNA: −4.328
  Intensity (log): Homo sapiens fibroblast growth factor 17 (FGF17), mRNA: −0.8946
  Intensity (log): Homo sapiens frizzled-related protein (FRZB), mRNA: 0.565
  Intensity (log): Homo sapiens gastrin-releasing peptide (GRP), mRNA: −2.741
  Intensity (log): Homo sapiens glycophorin E (GYPE), mRNA: −2.016
  Intensity (log): Homo sapiens glycophorin Erik STA (GPErik) gene complete cds: −1.194
  Intensity (log): Homo sapiens growth differentiation factor 3 (GDF3), mRNA: 1.673
  Intensity (log): Homo sapiens haptoglobin (HP), mRNA: −1.101
  Intensity (log): Homo sapiens haptoglobin-related protein (HPR), mRNA: −2.6068
  Intensity (log): Homo sapiens homeobox protein goosecoid mRNA, complete cds: −4.42
  Intensity (log): Homo sapiens hypothetical protein FLJ10718 (FLJ10718), mRNA: 2.605
  Intensity (log): Homo sapiens hypothetical protein FLJ10970 (FLJ10970), mRNA: −0.432
  Intensity (log): Homo sapiens hypothetical protein FLJ11316 (FLJ11316), mRNA: −0.9047
  Intensity (log): Homo sapiens hypothetical protein FLJ22252 similar to SRY-box containing gene 17 (FLJ22252), mRNA: 1.368
  Intensity (log): Homo sapiens lumican (LUM), mRNA: −4.057
  Intensity (log): Homo sapiens mRNA for GATA-6, complete cds: 2.219
  Intensity (log): Homo sapiens mRNA for KIAA1409 protein, partial cds: 0.3683
  Intensity (log): Homo sapiens mRNA; cDNA DKFZp434D0818 (from clone DKFZp434D0818): −2.634
  Intensity (log): Homo sapiens mRNA; cDNA DKFZp586J0624 (from clone DKFZp586J0624); complete cds: −0.8352
  Intensity (log): Homo sapiens presenilin stabilization factor b (PSF) mRNA, complete cds; alternatively spliced: −0.8617
  Intensity (log): Homo sapiens reserved (KCNK12), mRNA: −0.4687
  Intensity (log): Homo sapiens retinoid X receptor, gamma (RXRG), mRNA: −2.375
  Intensity (log): Homo sapiens sema domain, immunoglobulin domain (Ig), short basic domain, secreted, (semaphorin) 3E (SEMA3E), mRNA: −0.786
  Intensity (log): Homo sapiens sema domain, seven thrombospondin repeats (type 1 and type 1-like), transmembrane domain (TM) and short cytoplasmic domain, (semaphorin) 5A (SEMA5A), mRNA: −1.533
  Intensity (log): Homo sapiens solute carrier family 21 (prostaglandin transporter), member 2 (SLC21A2), mRNA: 0.7114
  Intensity (log): Homo sapiens type VI collagen alpha 2 chain precursor (COL6A2) mRNA, complete cds, alternatively spliced: 1.7011
  Intensity (log): Homo sapiens, alpha-1 (VI) collagen: −3.662
  Intensity (log): Homo sapiens, clone MGC: 4655, mRNA, complete cds: 2.3772
  Intensity (log): Human (clone 8B1) Br-cadherin mRNA, complete cds: −2.179
  Intensity (log): Human (clone HSY3RR) neuropeptide Y receptor (NPYR) mRNA, complete cds: 1.775
  Intensity (log): Human DNA sequence from clone RP1-181C24 on chromosome 6p11.1-12.2. Contains the 3 end of the BMP5 gene for bone morphogenetic protein 5, ESTs, STSs and GSSs: −3.723
  Intensity (log): Human Fritz mRNA, complete cds: 0.4366
  Intensity (log): Human dipeptidyl peptidase IV (CD26) mRNA, complete cds: −3.611
  Intensity (log): Human glycophorin HeP2 mRNA, partial cds: −0.8435
  Intensity (log): Human link protein mRNA, complete cds: −1.94
  Intensity (log): Human mRNA for alpha-1 type II collagen: −2.8736
  Intensity (log): Human mRNA for apolipoprotein AI (apo AI): 0.2151
  Intensity (log): Human prostatic secretory protein 57 mRNA, complete cds: −3.013
  Intensity (log): KIAA1462 protein: −3.846
  Intensity (log): MCP-1 = monocyte chemotactic protein (human, aortic endothelial cells, mRNA, 661 nt): −2.276
  Intensity (log): Rho GDP dissociation inhibitor (GDI) alpha: −1.544
  Intensity (log): WAS protein family, member 2: −2.187
  Intensity (log): collagen, type IX, alpha 2: 1.27
  Intensity (log): collagen, type VI, alpha 1: −1.418
  Intensity (log): hepatocyte nuclear factor 4, alpha: −4.266
  Intensity (log): homeo box HB9: −1.656
  Intensity (log): hypothetical protein FLJ21032: 0.3557
  Intensity (log): hypothetical protein FLJ23091: 0.3234
  Intensity (log): microfibrillar-associated protein 4: 0.06379
  Intensity (log): myristoylated alanine-rich protein kinase C substrate (MARCKS, 80K-L): −0.7172
